Assay results published in PMC12434091, “Real-time monitoring with iTLR4 assay identifies ligand-dependent TLR4-TLR4 conformational dynamics” (Frontiers in Immunology, 2025).

Biological target: T1, Toll-like receptor 4 (TLR4) (Homo sapiens, UniProt O00206)
T1 construct: HA-TLR4-NLuc and HA-TLR4-Venus (C-terminal tags); with MD2 and CD14 (co-expressed; not required)
Experiment: BRET TLR4-TLR4 proximity assay (iTLR4) in transfected HEK293 cells
Format: cell-based

T1 sequence (O00206 24-839): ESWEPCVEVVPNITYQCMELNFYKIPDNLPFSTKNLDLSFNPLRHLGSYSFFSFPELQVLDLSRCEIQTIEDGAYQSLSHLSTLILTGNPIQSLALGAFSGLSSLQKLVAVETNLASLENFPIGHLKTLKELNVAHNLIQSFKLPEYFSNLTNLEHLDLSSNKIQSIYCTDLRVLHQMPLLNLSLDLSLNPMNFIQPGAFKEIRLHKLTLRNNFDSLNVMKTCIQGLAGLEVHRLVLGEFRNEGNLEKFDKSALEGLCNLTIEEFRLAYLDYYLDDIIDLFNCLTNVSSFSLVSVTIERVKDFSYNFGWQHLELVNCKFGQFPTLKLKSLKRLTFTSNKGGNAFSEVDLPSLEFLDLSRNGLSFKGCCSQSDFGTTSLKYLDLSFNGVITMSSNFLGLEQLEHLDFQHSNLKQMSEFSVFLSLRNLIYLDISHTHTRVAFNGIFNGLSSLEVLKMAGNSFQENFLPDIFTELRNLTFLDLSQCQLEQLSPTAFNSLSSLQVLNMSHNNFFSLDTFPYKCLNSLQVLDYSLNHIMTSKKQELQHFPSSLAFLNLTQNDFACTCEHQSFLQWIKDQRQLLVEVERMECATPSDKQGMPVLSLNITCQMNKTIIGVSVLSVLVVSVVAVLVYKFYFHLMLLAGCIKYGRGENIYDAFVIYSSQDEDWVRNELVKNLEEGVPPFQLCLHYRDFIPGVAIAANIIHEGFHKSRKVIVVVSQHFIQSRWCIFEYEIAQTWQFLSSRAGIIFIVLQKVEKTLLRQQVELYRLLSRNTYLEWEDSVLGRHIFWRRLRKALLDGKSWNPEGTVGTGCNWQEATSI
T1 sequence (Q9Y6Y9 19-160 partner): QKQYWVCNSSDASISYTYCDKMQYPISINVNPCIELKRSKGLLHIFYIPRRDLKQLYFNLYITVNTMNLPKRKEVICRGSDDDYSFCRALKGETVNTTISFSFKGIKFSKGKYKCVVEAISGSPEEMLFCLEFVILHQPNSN
T1 sequence (P08571 20-345 partner): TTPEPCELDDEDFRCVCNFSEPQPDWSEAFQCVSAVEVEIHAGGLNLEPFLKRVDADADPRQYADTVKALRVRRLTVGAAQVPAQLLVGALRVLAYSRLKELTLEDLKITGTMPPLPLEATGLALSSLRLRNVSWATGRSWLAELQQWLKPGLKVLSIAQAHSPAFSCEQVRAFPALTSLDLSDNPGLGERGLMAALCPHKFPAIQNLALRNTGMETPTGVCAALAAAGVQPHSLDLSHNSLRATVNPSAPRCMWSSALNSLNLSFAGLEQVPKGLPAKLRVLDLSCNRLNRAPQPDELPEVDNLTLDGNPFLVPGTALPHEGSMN

| Structure (SMILES) | EC50 [µM] |
| --- | --- |
| C=CCN1CC[C@@]23c4c5ccc(O)c4O[C@@H]2C(=O)CC[C@]3(O)[C@@H]1C5 [(+)-naloxone] | 4.2 |
| C=CCN1CC[C@]23c4c5ccc(O)c4O[C@H]2C(=O)CC[C@@]3(O)[C@H]1C5 [(-)-naloxone] | 3 |
